Laboratory results from patent US8003602B2 (priority 2006, dated 2011).
In brackets after ≈: the same amount, converted by molar mass.

Experiments:
Assay in all cases: MIC, Macro-broth dilution method
Type in all cases: cell-based
[1] = system: Citrobacter diversus 2046 E
Description: (§1) The in-vitro potency was established by minimum inhibitory concentration (MIC) determinations of the compound PM181104 against bacterial strains, by using the Macro-broth dilution method as per National Committee for Clinical Laboratory Standards (2000) guidelines [Journal of Anti-microbial Chemotherapy, 2002, 50, 125-128 (Cross Reference 8: Methods for Dilution Antimicrobial Susceptibility Tests for Bacteria that Grow Aerobically-Fifth Edition: Approved Standard M7-A5. NCCLS, Wayne, Pa., USA)]. Unless stated otherwise, Mueller-Hinton broth was used as nutrient medium for the assay. Linezolid (manufactured by Glenmark Pharma Ltd; Batch no: K2005028) was used as known standard in all in-vitro experiments. For preparation of the stock solution the compound PM181104 was dissolved in chloroform (5% of the total required volume) and diluted using methanol (95% of the total required volume).

Enterococci KEM-VRE26 = system: Enterococci KEM-VRE26
Description: as §1

E. faecalis ATCC BAA 472 = system: E. faecalis ATCC BAA 472
Description: as §1

Streptococcus durans = system: Streptococcus durans
Description: as §1

Pse. aeruginosa (M-35) = system: Pse. aeruginosa (M-35)
Description: as §1

Enterococci KEM-VRE29 = system: Enterococci KEM-VRE29
Description: as §1

[2] = system: Streptococcus durans 4939 (1) H
Description: as §1

Salmonella typhi Para A = system: Salmonella typhi Para A
Description: as §1

Enterococci KEM-VRE28 = system: Enterococci KEM-VRE28
Description: as §1

E. faecalis (uD.8b) = system: E. faecalis (uD.8b)
Description: as §1

Klebsiella pneumoniae = system: Klebsiella pneumoniae
Description: as §1

E. coli SS = system: E. coli SS
Description: as §1

Enterococci KEM-VRE27 = system: Enterococci KEM-VRE27
Description: as §1

Streptococcus hirae 55 = system: Streptococcus hirae 55
Description: as §1

SMILES: C=C(NC(=O)C(=C)NC(=O)C1CCCN1C(=O)c1nc(-c2ccc(-c3nc(C(=O)NC(=C)C(=O)NC(C)C(N)=O)cs3)c(-c3csc(C4Cc5nc(cs5)C(=O)NC(Cc5ccccc5)C5=NC(CS5)C(=O)NC(Cc5ccc(O)cc5)C(=O)N5CCCC5c5nc(cs5)C(=O)N4)n3)n2)oc1C)C(N)=O (centres unmarked) [PM181104]
- MIC [1]: >1000 ng/mL
- MIC (Enterococci KEM-VRE26): 7.81 ng/mL (≈ 5.15 nM)
- MIC (E. faecalis ATCC BAA 472): 15.63 ng/mL (≈ 10.3 nM)
- MIC (Streptococcus durans): 7.81 ng/mL (≈ 5.15 nM)
- MIC (Pse. aeruginosa (M-35)): >1000 ng/mL
- MIC (Enterococci KEM-VRE29): 3.91 ng/mL (≈ 2.58 nM)
- MIC [2]: 7.81 ng/mL (≈ 5.15 nM)
- MIC (Salmonella typhi Para A): >1000 ng/mL
- MIC (Enterococci KEM-VRE28): 7.81 ng/mL (≈ 5.15 nM)
- MIC (E. faecalis (uD.8b)): 3.91 ng/mL (≈ 2.58 nM)
- MIC (Klebsiella pneumoniae): >1000 ng/mL
- MIC (E. coli SS): >1000 ng/mL
- MIC (Enterococci KEM-VRE27): 3.91 ng/mL (≈ 2.58 nM)
- MIC (Streptococcus hirae 55): 3.91 ng/mL (≈ 2.58 nM)
